Experimental data reported in patent US11739122B2, “Glycopeptide antibiotic compounds, methods for producing the same, and uses thereof” (Academia Sinica, priority 2019, dated 2023).
In brackets after ≈: the same amount, converted by molar mass.

Legend:
Assay in all cases: MIC, broth microdilution
VRE ATCC 700221 (vanA) = assay type: cell-based, enterococci; settings: VRE ATCC 700221 (vanA)
Protocol: (§1) Determination of Minimal Inhibitory Concentration (MIC) for Vancomycin, Teicoplanin and Tei-Analogs Versus Selected Strains
(§2) MICs were determined by the broth microdilution method. Specifically, 12 Colonies of the test strain were picked up from 18-24 hour agar cultures and freshly inoculated into broth mediums until reaching the turbidity of a 0.5 McFarland standard. The broth culture was adjusted with broth medium to approximately 1×10^8 CFUmL^−1. […] The plates were incubated in 37° C. for 18-24 hours and monitored for the wells of the positive control, where cells grew, and the wells of the negative control, where wells should not grow. The MIC value was determined for the concentration of a test compound, at which there was no visible growth in the well.

VRE ATCC 700425 (vanC) = assay type: cell-based, enterococci; settings: VRE ATCC 700425 (vanC)
Protocol: as §1, §2

VRE ATCC 700802 (vanB) = assay type: cell-based, enterococci; settings: VRE ATCC 700802 (vanB)
Protocol: as §1, §2

E. faecalis ATCC 29302 = assay type: cell-based; settings: EF ATCC 29302
Protocol: as §1, §2

S. aureus ATCC 29213 = assay type: cell-based, Staphylococcus aureus; settings: SA ATCC 29213
Protocol: as §1, §2

MRSA ATCC 700789 VRSA = assay type: cell-based, Staphylococcus aureus; settings: MRSA ATCC 700789 VRSA
Protocol: as §1, §2

MRSA ATCC 43300 = assay type: cell-based, Staphylococcus aureus; settings: MRSA ATCC 43300
Protocol: as §1, §2

MRSA ATCC 700787 VRSA = assay type: cell-based, Staphylococcus aureus; settings: MRSA ATCC 700787 VRSA
Protocol: as §1, §2

MRSA ATCC BAA-39 = assay type: cell-based, Staphylococcus aureus; settings: MRSA ATCC BAA-39
Protocol: as §1, §2

MRSA ATCC 700698 hVISA = assay type: cell-based, Staphylococcus aureus; settings: MRSA ATCC 700698 hVISA
Protocol: as §1, §2

MRSA ATCC BAA-38 = assay type: cell-based, Staphylococcus aureus; settings: MRSA ATCC BAA-38
Protocol: as §1, §2

MRSA ATCC BAA-44 = assay type: cell-based, Staphylococcus aureus; settings: MRSA ATCC BAA-44
Protocol: as §1, §2

A. baumannii ATCC 19606 = assay type: cell-based, Acinetobacter baumannii; settings: for MIC on AB: A. baumannii ATCC 19606
Protocol: as §1, §2

[1] = A. baumannii ATCC 19606, Table 3, first figure of cell
[2] = A. baumannii ATCC 19606, Table 3, second figure of cell

| SMILES | MIC (VRE ATCC 700221 (vanA)) [µg/mL] | MIC (VRE ATCC 700425 (vanC)) [µg/mL] | MIC (VRE ATCC 700802 (vanB)) [µg/mL] | MIC (E. faecalis ATCC 29302) [µg/mL] | MIC (S. aureus ATCC 29213) [µg/mL] | MIC (MRSA ATCC 700789 VRSA) [µg/mL] | MIC (MRSA ATCC 43300) [µg/mL] | MIC (MRSA ATCC 700787 VRSA) [µg/mL] | MIC (MRSA ATCC BAA-39) [µg/mL] | MIC (MRSA ATCC 700698 hVISA) [µg/mL] | MIC (MRSA ATCC BAA-38) [µg/mL] | MIC (MRSA ATCC BAA-44) [µg/mL] | MIC on AB (A. baumannii ATCC 19606) [µg/mL] | MIC (A. baumannii ATCC 19606; [1]) [µM] | MIC (A. baumannii ATCC 19606; [2]) [µg/mL] |
| --- | --- | --- | --- | --- | --- | --- | --- | --- | --- | --- | --- | --- | --- | --- | --- |
| C#CCCC(=O)N[C@H]1[C@H](O[C@@H]2c3ccc(c(Cl)c3)Oc3cc4cc(c3O)Oc3ccc(cc3Cl)C[C@H]3NC(=O)[C@H](N)c5ccc(O)c(c5)Oc5cc(O)cc(c5)[C@H](NC3=O)C(=O)N[C@H]4C(=O)N[C@H]3C(=O)N[C@@H]2C(=O)N[C@H](C(=O)O)c2cc(O)cc(O)c2-c2cc3ccc2O)O[C@H](CO)[C@@H](O)[C@@H]1O [Compound 13] | >16 | 4 (≈ 2.78 µM) | 4 (≈ 2.78 µM) | 0.5 (≈ 0.347 µM) | 0.063 (≈ 0.0437 µM) | 1 (≈ 0.694 µM) | 0.125 (≈ 0.0868 µM) | 0.063 (≈ 0.0437 µM) | 0.063 (≈ 0.0437 µM) | 0.063 (≈ 0.0437 µM) | 0.063 (≈ 0.0437 µM) | 0.031 (≈ 0.0215 µM) |  |  |  |
| N[C@H]1C(=O)N[C@@H]2Cc3ccc(c(Cl)c3)Oc3cc4cc(c3O)Oc3ccc(cc3Cl)[C@@H](O[C@@H]3O[C@H](CO)[C@@H](O)[C@H](O)[C@H]3NC(=O)CCc3ccccc3)[C@@H]3NC(=O)[C@H](NC(=O)[C@@H]4NC(=O)[C@@H](NC2=O)c2cc(O)cc(c2)Oc2cc1ccc2O)c1ccc(O)c(c1)-c1c(O)cc(O)cc1[C@@H](C(=O)O)NC3=O [Compound 15] | >16 | 1 (≈ 0.67 µM) | 0.5 (≈ 0.335 µM) | 0.25 (≈ 0.168 µM) | 0.031 (≈ 0.0208 µM) | 0.5 (≈ 0.335 µM) | 0.031 (≈ 0.0208 µM) | 0.031 (≈ 0.0208 µM) | 0.016 (≈ 0.0107 µM) | 0.016 (≈ 0.0107 µM) | 0.016 (≈ 0.0107 µM) | 0.016 (≈ 0.0107 µM) |  |  |  |
| N[C@H]1C(=O)N[C@@H]2Cc3ccc(c(Cl)c3)Oc3cc4cc(c3O)Oc3ccc(cc3Cl)[C@@H](O[C@@H]3O[C@H](CO)[C@@H](O)[C@H](O)[C@H]3NC(=O)CCCCCc3ccccc3)[C@@H]3NC(=O)[C@H](NC(=O)[C@@H]4NC(=O)[C@@H](NC2=O)c2cc(O)cc(c2)Oc2cc1ccc2O)c1ccc(O)c(c1)-c1c(O)cc(O)cc1[C@@H](C(=O)O)NC3=O [Compound 16] | >16 | 1 (≈ 0.652 µM) | 0.25 (≈ 0.163 µM) | 0.25 (≈ 0.163 µM) | 0.125 (≈ 0.0815 µM) | 0.5 (≈ 0.326 µM) | 0.063 (≈ 0.0411 µM) | 0.125 (≈ 0.0815 µM) | 0.063 (≈ 0.0411 µM) | 0.016 (≈ 0.0104 µM) | 0.031 (≈ 0.0202 µM) | 0.016 (≈ 0.0104 µM) |  |  |  |
| N[C@H]1C(=O)N[C@@H]2Cc3ccc(c(Cl)c3)Oc3cc4cc(c3O)Oc3ccc(cc3Cl)[C@@H](O[C@@H]3O[C@H](CO)[C@@H](O)[C@H](O)[C@H]3NC(=O)CCCCCCCCCCCO)[C@@H]3NC(=O)[C@H](NC(=O)[C@@H]4NC(=O)[C@@H](NC2=O)c2cc(O)cc(c2)Oc2cc1ccc2O)c1ccc(O)c(c1)-c1c(O)cc(O)cc1[C@@H](C(=O)O)NC3=O [Compound 19] | >16 | 1 (≈ 0.642 µM) | 0.5 (≈ 0.321 µM) | 0.25 (≈ 0.16 µM) | 0.016 (≈ 0.0103 µM) | 0.25 (≈ 0.16 µM) | 0.063 (≈ 0.0404 µM) | 0.016 (≈ 0.0103 µM) | 0.016 (≈ 0.0103 µM) | 0.016 (≈ 0.0103 µM) | 0.031 (≈ 0.0199 µM) | 0.016 (≈ 0.0103 µM) |  |  |  |
| CN(C)[C@H]1C(=O)N[C@@H]2Cc3ccc(c(Cl)c3)Oc3cc4cc(c3O)Oc3ccc(cc3Cl)[C@@H](O[C@@H]3O[C@H](CO)[C@@H](O)[C@H](O)[C@H]3NC(=O)CCCCCCCO)[C@@H]3NC(=O)[C@H](NC(=O)[C@@H]4NC(=O)[C@@H](NC2=O)c2cc(O)cc(c2)Oc2cc1ccc2O)c1ccc(O)c(c1)-c1c(O)cc(O)cc1[C@@H](C(=O)O)NC3=O [Compound 21] | >16 | 8 (≈ 5.23 µM) | 8 (≈ 5.23 µM) | 1 (≈ 0.653 µM) | 0.125 (≈ 0.0817 µM) |  |  | 0.125 (≈ 0.0817 µM) |  | 0.063 (≈ 0.0412 µM) |  |  | 152.84 (≈ 99.9 µM) | 100 | 152.84 |
| CN(C)[C@H]1C(=O)N[C@@H]2Cc3ccc(c(Cl)c3)Oc3cc4cc(c3O)Oc3ccc(cc3Cl)[C@@H](O[C@@H]3O[C@H](CO)[C@@H](O)[C@H](O)[C@H]3NC(=O)CCCCCCCN)[C@@H]3NC(=O)[C@H](NC(=O)[C@@H]4NC(=O)[C@@H](NC2=O)c2cc(O)cc(c2)Oc2cc1ccc2O)c1ccc(O)c(c1)-c1c(O)cc(O)cc1[C@@H](C(=O)O)NC3=O [Compound 22] | >16 | 2 (≈ 1.31 µM) | 1 (≈ 0.654 µM) | 1 (≈ 0.654 µM) | 0.031 (≈ 0.0203 µM) |  |  | 0.063 (≈ 0.0412 µM) |  | 0.125 (≈ 0.0817 µM) |  |  |  | 25 | 38.19 |
| CN(C)[C@H]1C(=O)N[C@@H]2Cc3ccc(c(Cl)c3)Oc3cc4cc(c3O)Oc3ccc(cc3Cl)[C@@H](O[C@@H]3O[C@H](CO)[C@@H](O)[C@H](O)[C@H]3NC(=O)CCCCCCC[N+](C)(C)C)[C@@H]3NC(=O)[C@H](NC(=O)[C@@H]4NC(=O)[C@@H](NC2=O)c2cc(O)cc(c2)Oc2cc1ccc2O)c1ccc(O)c(c1)-c1c(O)cc(O)cc1[C@@H](C(=O)O)NC3=O [Compound 23] | >16 | 2 | 1 | 0.25 | 0.031 |  |  | 0.031 |  | 0.031 |  |  | 78.52 | 50 | 78.52 |
| CN(C)[C@H]1C(=O)N[C@@H]2Cc3ccc(c(Cl)c3)Oc3cc4cc(c3O)Oc3ccc(cc3Cl)[C@@H](O[C@@H]3O[C@H](CO)[C@@H](O)[C@H](O)[C@H]3NC(=O)CCCCCCCNC(=N)NC(=N)N)[C@@H]3NC(=O)[C@H](NC(=O)[C@@H]4NC(=O)[C@@H](NC2=O)c2cc(O)cc(c2)Oc2cc1ccc2O)c1ccc(O)c(c1)-c1c(O)cc(O)cc1[C@@H](C(=O)O)NC3=O [Compound 25, r1,Me2-r6,C8-diguanidino-Tei] |  |  |  |  |  |  |  |  |  |  |  |  | 39.24 (≈ 24.3 µM) | 25 | 40.29 |
| CC(=O)NC1C(OC2c3ccc(c(Cl)c3)Oc3cc4cc(c3OC3OC(CO)C(O)C(O)C3NC(=O)CCCCCCCNC(=N)N)Oc3ccc(cc3Cl)CC3NC(=O)C(N(C)C)c5ccc(O)c(c5)Oc5cc(O)cc(c5)C(NC3=O)C(=O)NC4C(=O)NC3C(=O)NC2C(=O)NC(C(=O)O)c2cc(O)cc(OC4OC(CO)C(O)C(O)C4O)c2-c2cc3ccc2O)OC(CO)C(O)C1O (stereo not drawn) [Compound 27] |  |  |  |  |  |  |  |  |  |  |  |  |  | 50 | 96.73 |
| NCCC[C@H](N)CC(=O)N[C@@H]1[C@H](O)[C@@H](OC(N)=O)[C@@H](CO)O[C@H]1NC1=N[C@@H]2C(=O)NC[C@@H](O)[C@H]2N1 [streptothricin F, reference compound] |  |  |  |  |  |  |  |  |  |  |  |  |  | 12.5 | 6.28 |
